From patent US9512142B2, “Tricyclic triazolic compounds” (LABORATORIOS DEL DR. ESTEVE S.A., priority 2013, dated 2016) come the findings set out here.

Series [1] in a line: Kinetic solubility. Format: physicochemical. The conditions noted are these: kinetic from dmso stock, buffered aqueous solution at pH=7.4, 10 μL of 10 mM DMSO solution in 1 mL, stirred 4 hours, supernatant by liquid chromatography, read-out: Kin. Solub. The protocol:
To a buffered aqueous solution at pH=7.4 (1 mL), a 10 mM DMSO solution of the test compound (10 μL) was added and the mixture stirred for 4 hours. After centrifugation, the compound concentration in the supernatant was determined by liquid chromatography by fitting in a calibration curve of the compound.

For series [2], the target named is T1, human sigma 1 receptor (Homo sapiens, UniProt Q99720).
T1 construct: expressed in transfected cells; host or cells: HEK-293
As to the kind of experiment: Human sigma 1 receptor radioligand assay ([3H](+)-pentazocine, transfected HEK-293 membranes). Format: binding. The conditions noted are these: 5 nM [3H](+)-pentazocine, transfected HEK-293 membranes, 37° C., 120 minutes; read-out: Ki.

The mark [3] stands for this setting: buffered aqueous solution, pH 7.4, aqueous buffer.

Like-named read-outs stand apart in the source and are kept apart here.

T1 sequence (Q99720 whole entry): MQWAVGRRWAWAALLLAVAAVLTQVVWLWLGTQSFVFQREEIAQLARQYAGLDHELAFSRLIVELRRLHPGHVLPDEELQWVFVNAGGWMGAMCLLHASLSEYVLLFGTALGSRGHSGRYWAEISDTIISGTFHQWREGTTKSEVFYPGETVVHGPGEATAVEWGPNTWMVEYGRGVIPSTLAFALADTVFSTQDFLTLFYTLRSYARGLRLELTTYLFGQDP

For orientation: Ki means a measure of affinity in units of concentration, obtained from inhibition or displacement. For the molecule `Cl.Fc1ccc(-c2nnn3c2CO[C@H]2CN(Cc4ccoc4)C[C@@H]23)c(F)c1` [Example 62, (5aS,8aS)-3-(2,4-difluorophenyl)-7-(furan-3-ylmethyl)-4,5a,6,7,8,8a-hexahydropyrrolo[3,4-b][1,2,3]triazolo[1,5-d][1,4]oxazine hydrochloride], the solubility at 4 h in series [1] (setting [3]) was greater than 10 µM. For the same molecule, the Ki in series [2] was determined as 39.2 nM.
`Cl.Fc1ccc(-c2nnn3c2CO[C@@H]2CN(Cc4ccoc4)C[C@H]23)c(F)c1` [Example 63, (5aR,8aR)-3-(2,4-difluorophenyl)-7-(furan-3-ylmethyl)-4,5a,6,7,8,8a-hexahydropyrrolo[3,4-b][1,2,3]triazolo[1,5-d][1,4]oxazine hydrochloride]: the solubility at 4 h in series [1] (setting [3]) was greater than 10 µM. In addition, the Ki in series [2] was determined as 37.7 nM.
As to `Cl.Cn1nccc1-c1nnn2c1CO[C@@H]1CN(Cc3ccc(F)cc3)C[C@H]12` [Example 66, (5aR,8aR)-7-(4-fluorobenzyl)-3-(1-methyl-1H-pyrazol-5-yl)-4,5a,6,7,8,8a-hexahydropyrrolo[3,4-b][1,2,3]triazolo[1,5-d][1,4]oxazine hydrochloride], the solubility at 4 h in series [1] (aqueous buffer) was greater than 10 µM. The Ki in series [2] is 138 nM.
